Like-named read-outs stand apart in the source and are kept apart here.
Assays:
[1] = system: climbing behavior induced by apomorphine; assay: Neuroleptic activity: anti-climbing behavior test (suppression of climbing behavior induced by apomorphine); assay type: in vivo, mice (dd strain male); settings: for ED50: Mus musculus, read-out: ED50 (50% effective dose), anti-climbing
[2] = Extrapyramidal activity: catalepsy inducing activity test; parameters: species or system mice (dd strain male); settings: mouse, in vivo
Procedure: (§1) (2) Extrapyramidal activity
(§2) This activity was examined through the catalepsy inducing activity test as described in M. Fujiwara et al.: Folia Formacol., Japon: 85, 259-274 (1985). A designated amount of the test compound was orally administered to dd strain male mice (bodyweight, 22 to 27 g), and 1 and 4 hours after the administration, catalepsy induction was checked according to the Wirth et al method. Thus, each of the animals was forced to hang the forepows onto a metal pole of 2.5 mm in diameter horizontally situated at a height of 5 cm to maintain a strained state. The test was made with three replications, and the presence of at least one case where the animal was kept in the strained state over a period of 30 seconds was deemed to have caused catalepsy.

catalepsy = assay: as above; parameters: species or system mice (dd strain male); settings: mouse, in vivo
Procedure: as §1, §2

[3] = 50 min, Oral administration, apomorphine 1.0 mg/kg s.c. after 50 minutes, mice
[4] = sc, Subcutaneous administration, apomorphine 1.0 mg/kg s.c., mice

Row | SMILES | ED50 [1, 3] | ED50 [1, 4] | TD50 ([2]; po) | ED50 ([1]; sc) | neuroleptic activity (anti-climbing activity), in words ([1]; route not stated) | TD50 ([2]; oral administration, checked 1 and 4 hours after administration, mice, read-out: ED50, catalepsy induction) | extrapyramidal activity (catalepsy inducing activity), in words (catalepsy)
1 | O=C1[C@@H]2[C@H]3CC[C@H](C3)[C@@H]2C(=O)N1CCCCN1CCN(c2nsc3ccccc23)CC1 [Compound No. 1, N-[4-{4-(1,2-Benzisothiazol-3-yl)-1-piperazinyl}butyl]bicyclo[2.2.1]heptane-2,3-di-exo-carboximide] | 2 mg/kg | 0.15 mg/kg | 68.1 mg/kg | – | – | – | –
2 | O=C1[C@@H]2[C@@H]3CC[C@@H](C3)[C@@H]2C(=O)N1CCCCN1CCN(c2nsc3ccccc23)CC1 [Compound No. 5, N--[4-{4-(1,2-Benzisothiazol-3-yl)-1-piperazinyl}butyl]bicyclo[2.2.1]heptane-2,3-di-endo-carboximide] | 2.6 mg/kg | 0.13 mg/kg | 112 mg/kg | – | – | – | –
3 | O=C(CCCN1CCC(O)(c2ccc(Cl)cc2)CC1)c1ccc(F)cc1 [Haloperidol, 4-[4-(4-chlorophenyl)-4-hydroxy-1-piperidinyl]-1-(4-fluorophenyl)-1-butanone] | – | – | – | 0.21 mg/kg | significant neuroleptic activity | < 5 mg/kg | considerably high level of extra-pyramidal activity
4 | O=C1CC2(CCCC2)CC(=O)N1CCCCN1CCN(c2nsc3ccccc23)CC1 [Tiaspiron, 8-[4-(3-benzisothiazolyl)-1-piperazinylbutyl]-8-azaspiro[4,5]decane-7,9-dione] | > 10 mg/kg | 0.23 mg/kg | – | – | – | – | –

From patent US4745117A, “Imide derivatives and compositions for use as antipsychotic agents” (Sumitomo Pharmaceuticals Company, Limited, priority 1985, dated 1988)
